Source: patent publication US5776957A, “Nornicotine enantiomers for use as a treatment for dopamine related conditions and disease states” (The University of Kentucky Research Foundation, priority 1996, dated 1998)
“Also recorded” adds a separate entry of the source. Read-outs that look alike come from different tables or passages of the source.

Legend:
[1] = NIC and metabolites in rat brain after s.c. injection of radiolabelled NIC; type: in vivo
Excerpt: NIC metabolism studies involving HPLRC analysis invariably utilize NIC with a radiolabel (i.e., [^3 H], [^14 C] or [^11 C]) incorporated in the methyl group. However N-demethylated NIC metabolites (norNIC and norCOT) cannot be detected after injection of such radionuclides, since the label is lost in the formation of these metabolites. NIC and four NIC metabolites have recently been detected in rat brain 4 hr after s.c. injection of [2'-^14 C]NIC (FIG. 3, Table I). Three of these metabolites have been identified as COT, norNIC and norCOT. A fourth minor metabolite (Peak B) has not been completely identified but appears to be an N-demethylated metabolite, since it is not detected in the [^3 H-N-methyl]NIC studies.
COT, and therefore, is unlikely to originate from COT N-demethylation. 3-HydroxyCOT and its glucuronide conjugate were not detected as metabolites of either NIC or COT in brain, even though these are major biotransformation products in the periphery (Crooks, 1993).
It appears that NIC metabolites which accumulate with a time course that correlates with the development of behavioral sensitization to NIC have a role in eliciting sensitization to NIC. The inventors have detected NIC, COT, norNIC and norCOT in brain 4 hr following acute s.c. injection of (±)[2'-^14 C]NIC. S(-) [^3 H] -N-methyl]NIC is unsuitable for studying brain metabolism of NIC, since nor-metabolites (i.e., demethylated metabolites) cannot be detected due to [^3 H]-loss during metabolism (Crooks et al., 1995b, AP 7). Thus, commercially available (±)[2'-^14 C]NIC was used to determine NIC metabolites present in brain. This form of radiolabelled NIC provides a metabolically stable [^14 C]-label which allows measurement of all potential NIC metabolites.
A second "metabolite" (Peak A, FIG. 2) was also detected at each time point and most likely results from a combination of metabolic cleavage of the N-methyl group and dissociated-[^3 H], i e, Peak A represents an oxidized 1-carbon unit and indicates the extent of NIC N-demethylation. Note, in our subsequent studies with [2'-^14 C]NIC, Peak A was not observed, which is consistent with our interpretation of the results (Table 1).

[2] = test system: [3H]DA-preloaded rat striatal slices (nicotinic receptors); test: [3H]overflow (DA release) from [3H]DA-preloaded rat striatal slices; type: cell-based
Description: In vitro pharmacological effects of NIC are generally investigated using either striatal slices or synaptosome preparations preloaded with [^3 H] DA. NIC-evoked [^3 H]overflow is obtained routinely in the presence of nomifensine (10 μM; a DA uptake inhibitor) and for pargyline (10 μM, a monoamine oxidase inhibitor) in the superfusion buffer, such that [^3 H]overflow represents primarily [^3 H]DA rather than [H]DA-metabolites (Zumstein et al., 1981, Hoffmann and Cubeddu, 1982, Dwoskin and Zahniser, 1986, Rapier et al., 1988), and for this reason, [^3 H]overflow also will be referred to as [^3 H] DA release in the proposal.
The present studies use striatal slices superfused with various concentrations of NIC or norNIC for prolonged periods.
FIG. 4. […] Insets illustrate the response to the low concentration range. […] NIC exposure indicated by the bar under time course. Note: 1-min sample collection period. […] N=4 rats.
Rat striatal slices were depolarized with 10 μM NIC, 20 mM K+or 1 Hz, 60 pulses or 3 Hz, 180 pulses electrical field stimulation. […] N=4.
MEC or DHβE was included in the superfusion buffer for 60 min prior to the addition of NIC, and superfusion continued for 60 min in the presence of NIC+antagonist.

[3] = GC-MS, Deutsch et al., 1992; cited from earlier work
[4] = i.p. [14C-N-methyl]NIC, HPLRC; cited from earlier work
[5] = cited from earlier work
[6] = water, ethyl alcohol, ether, chloroform, benzene, ethyl acetate, carbon disulfide; cited from earlier work
[7] = Stolerman et al. (1995), cited from earlier work
[8] = Stolerman et al., 1984; cited from earlier work
[9] = test system: N-methyl-D-aspartate(NMDA) receptor; conditions: MK-801 site within the channel; cited from earlier work
[10] = Locomotor activity assay, acute and repeated treatment, S(-) nicotine challenge, saline challenge; type: in vivo, rat; conditions: for behavioral sensitization after repeated administration: 8 injections once every 48 hrs, nicotine 1 mg/kg, R(+) 0.3-10 mg/kg, S(-) nornicotine 10 mg/kg; for enabling of sensitization to S(-) nicotine: repeated R(+) nornicotine, S(-) nicotine challenge
Description: (I mg/kg), norNIC (0.3-10 mg/kg) or R(+) norNIC (0.3-10 mg/kg) was administered peripherally (s.c., 8 injections once every 48 hrs) to groups of rats and locomotor activity was assessed for 50 min immediately after each injection.
In the present study, S(-) nicotine (1 mg/kg), R(+) nornicotine (1-10 mg/kg), S(-) nornicotine (1-10 mg/kg), or vehicle (saline) were administered s.c. to groups of rats (n=6) acutely or repeatedly (8 injections once every 48 hrs). Locomotor activity was measured during 50 min sessions immediately following drug or vehicle administration.
Male Sprague-Hawley rats (225-250 g) from Harlan Laboratories were housed two per cage with free access to food and water.
Activity was recorded automatically in a wooden test-chamber measuring 30×28×43 cm high. The chamber had white walls and a wire mesh floor over pine chip bedding. Two photobeams located 4.5 cm above the floor divided the chamber into four equal quadrants. Electromechanical equipment located in an adjacent room recorded photobeam interruptions automatically. A white noise generator provided an ambient 70 dB background noise in the test room in order to minimize extraneous sounds that might influence the animal's behavior in the test chamber. Rats were habituated to the chamber for 50 min on each of three consecutive days.
On the day immediately after the third habituation session, rats were randomly divided into groups (n=6/group) and were administered s.c. either S(-) nicotine (1 mg/kg), R(+) nornicotine (0.3, 1, 3 and 10 mg/kg), or vehicle (saline) to determine acute drug effects on locomotor activity. In a separate experiment, rats (n=6/group) were administered s.c. either S(-) nicotine (1 mg/kg), S(-) nornicotine (0.3, 1, 3 and 10 mg/kg), or vehicle (saline). To determine the effect of repeated drug administration on locomotor activity, drug or vehicle was administered respectively in the test-room once every 48 hrs for a total of 8 injections. After each injection, locomotor activity was recorded during a 50 min session (five 10-min blocks). On the ninth injection day (48 hrs following injection 8), each group of rats was administered a challenge dose (1 mg/kg) of S(-) nicotine in the test-room, and locomotor activity was determined immediately thereafter. On the tenth injection day, each group of rats was administered saline and locomotor activity recorded to determine potential conditioning effects of the repeated drug administration.
Post hoc analysis of pairwise comparisons was performed with Duncan's New Multiple Range test.

[11] = test system: nicotinic receptor sites in the brain; test: displacement of nicotine from nicotinic receptor sites in the brain; type: binding

CN1C(=O)CC[C@H]1c1cccnc1 [COT, Cotinine]
detectability in brain at 18 hrs post-injection ([1]; 18 hrs): still detectable | residence time in the CNS relative to NIC ([1]; rat brain): longer residence time in the CNS than NIC | presence as metabolite in brain ([1]; rat brain, after s.c. radiolabelled NIC): major metabolite of NIC in brain | evoked [3H]overflow ([2]; concentration-dependent): concentration dependent increase | presence in rat brain after peripheral NIC injection [3]: not found in rat brain | detection in mouse brain [4]: detected

CN1CCCC1=O [N-methyl-2-pyrrolidone]
toxicity ([5]; Ames type assays and chronic exposure studies): not revealed any significant toxicity | irritation or sensitization potential ([5]; animal and human experiments): very little irritation or sensitization potential | miscibility [6]: miscible with water

CNC1(C)C2CCC(C2)C1(C)C (centres unmarked) [MEC, mecamylamine]
inhibition of NIC-evoked [3H]overflow ([2]; 10 μM NIC, concentration-dependent): robustly inhibited | effect on [3H]DA release itself ([2]; 0.01-100 μM): did not alter [^3 H]DA release itself | inhibition of norNIC-evoked [3H]overflow ([2]; high concentrations (100 μM-3 mM) of norNIC): ineffective in inhibiting | inhibition of norNIC-evoked [3H]overflow ([2]; low concentrations (<100 μM) of norNIC): effectively inhibited | mode of antagonism of norNIC response ([2]; norNIC concentration-response curve): noncompetitive | block of R(+) norNIC-induced decrease in locomotor activity [7]: blocked | effect on nicotine interoceptive cues [8]: blocks nicotine interoceptive cues | NMDA receptor inhibition [9]: noncompetitive inhibitor

c1cncc([C@H]2CCCN2)c1 [R(+) nornicotine, R-(+) nornicotine]
release of dopamine from presynaptic terminals ([2]; neuronal tissue): stereoselective and receptor-mediated | behavioral sensitization after repeated administration [10]: did not produce behavioral sensitization; also recorded: did not result in behavioral sensitization; also recorded: does not | behavioral sensitization after repeated administration ([10]; listed as R(+) norNIC): does not | conditioned response to repeated administration (saline challenge) ([10]; 48 hrs after S(-) nicotine challenge): did not contribute to the observed behavioral sensitization | cumulated locomotor activity after saline challenge ([10]; R(+) experiment, 0.3 mg/kg): 368 ± 39 number of photobeam interruptions/50 min session | cumulated locomotor activity after saline challenge ([10]; R(+) experiment, 1.0 mg/kg): 478 ± 40 number of photobeam interruptions/50 min session | cumulated locomotor activity after saline challenge ([10]; R(+) experiment, 3.0 mg/kg): 498 ± 44 number of photobeam interruptions/50 min session | cumulated locomotor activity after saline challenge ([10]; R(+) experiment, 10 mg/kg): 234 ± 30 number of photobeam interruptions/50 min session | locomotor activity time course ([10]; acute R(+) 0.3 mg/kg): small, but not significant, decreases | locomotor activity time course ([10]; acute R(+) 10 mg/kg, initial 20 min): significantly decreased | locomotor activity time course ([10]; acute R(+) 10 mg/kg, latter part of session): not different from the saline-control group | cumulated locomotor activity vs saline-control ([10]; acute, 0.3 and 10 mg/kg, R(+) experiment): depression in activity | locomotor activity, first 10 min ([10]; acute, R(+) 3 mg/kg s.c.): 125±17 photobeam interruptions | locomotor activity, first 10 min after S(-) nicotine challenge ([10]; repeated R(+) 1 mg/kg): 127±12 photobeam interruptions | locomotor activity, first 10 min after S(-) nicotine challenge ([10]; repeated R(+) 3 mg/kg): 136+32 photobeam interruptions | locomotor activity time course ([10]; repeated R(+) 0.3-10 mg/kg): not different from that of the saline-control group | cumulated locomotor activity after S(-) nicotine challenge ([10]; repeated R(+) 0.3 and 1 mg/kg): not different from the saline-control group | S(-) nicotine-induced stimulation, first 10 min ([10]; repeated R(+) 1-10 mg/kg): significant (P<0.001) and dose-dependent | cumulated locomotor activity after S(-) nicotine challenge ([10]; repeated R(+) 3 and 10 mg/kg): significant increases in activity | enabling of sensitization to S(-) nicotine [10]: enabled sensitization to S(-) nicotine; also recorded: dose-related sensitization to the stimulatory effect of S(-) nicotine | enabling of sensitization to S(-) nicotine ([10]; listed as R(+) norNIC): enabled an enhanced response to NIC challenge | S(-) nicotine-induced stimulation, first 10 min ([10]; repeated, R(+) 0.3 mg/kg): not significant | cumulated locomotor activity vs saline-control ([10]; repeated, R(+) 0.3 mg/kg): decreased significantly | tolerance to depressant effect ([10]; repeated, R(+) 0.3 mg/kg): tolerance did not develop | tolerance to depressant effect ([10]; repeated, R(+) 10 mg/kg): tolerance developed | cumulated locomotor activity vs saline-control ([10]; repeated, R(+) 1, 3 and 10 mg/kg): not different from that of the saline-control group | displacement of nicotine from nicotinic receptor sites [11]: cause displacement of nicotine | cross-sensitization after chronic nicotine [7]: increased activity, demonstrating cross-sensitization; also recorded: increased activity (i.e., cross-sensitization) | locomotor activity, acute [7]: decreased locomotor activity | cross-sensitization after chronic nicotine ([7]; listed as R(+) norNIC): cross-sensitization to R(+) norNIC was observed
